This is an account of results in patent US8106111B2, “Antimicrobial effect of cycloaliphatic diol antimicrobial agents in coating compositions” (Eastman Chemical Company, priority 2009, dated 2012).

Series [1] in a line: Solubility in aqueous growth media. In kind it is physicochemical. How it is done:
Stock solutions were prepared for each isomer in the corresponding growth media at a concentration of 5% w/v (1,4-CHDM) or 2.25% w/v (1,1-CHDM). Serial dilutions were prepared with a dilution ratio of 1:1.3333 such that one log range was covered with nine dilutions.
Final results have been summarized below in Table 9.

Series [2] deals with challenge organisms (E. coli, Aeromonas sp., SRB isolate, B. subtilis, P. vulgaris, A. niger, C. albicans). As to the kind of experiment: Paint challenge test, summary over the challenge organisms. The class given is cell-based. The conditions noted are these: additive alone at 0.5-5%, all seven challenge organisms. How it is done:
A test of the antimicrobial efficacy of 1,4-CHDM was performed in a paint. Test procedures were generally performed according to those of ASTM D2574-06: Standard Test Method for Resistance of Emulsion Paints in the Container to Attack by Microorganisms.
The paint used for testing was a commercial water-based, interior latex flat wall paint purchased from Wal-Mart. The trade name for the paint was Quik Hide. The color was Off White 26905. A five gallon (18.9 L) container was purchased. The VOC (volatile organic compound) content was listed as <100 g/L (0.8 lbs/gal).
Aliquots of uninoculated paint were distributed in sterile plastic tubes. The volume of paint added was adjusted such that the volume of additives plus the volume of paint would equal 25 mL. […] The percentages shown in Table 2 are weight percentages.
The concentration of the additives in the paint was adjusted to allow for a final volume of 28 mL per tube after addition of inoculum. All tubes were mixed for 10 minutes on a mechanical shaker set to 75 shakes per minute, and then left stationary at ambient temperature for a minimum of 48 hours.
The bacteria (first five in list), yeast (C. albicans) and fungi (A. niger) in Table 3 were used as challenge organisms for testing the antimicrobial efficacy of the additives contained in the test paint samples. Each organism was isolated from previous naturally contaminated samples of paint, latex, or adhesive. The concentration of each organism (colony-forming unit/gram (cfu/g)) in the test paint samples added as inoculum is also given in Table 3.
(§1) Bacterial cultures were grown at 35° C.±2° C. for a minimum of 96 hours in liquid media. SRB was grown in a thioglycolate broth. All other bacteria and C. albicans were grown in a Trypticase Soy broth with 1% dextrose. C. albicans cultures were grown at 22° C.±2° C. for a minimum of 96 hours. A. niger was grown on the Sabouraud Dextrose Agar (SDA) and in the Trypticase Soy broth with 1% dextrose at 22° C. for 7 to 14 days or until full sporulation (in the case of the agar culture) was achieved. Spores from the plate culture of A. niger were dislodged by rubbing the growth gently with a sterile inoculating loop or removing it with a sterile glass impinger. The spores were added into the broth culture, and then the mixture was filtered through sterile nonabsorbent cotton and adjusted to a spore level of 1.0×10^8 using a hemocytometer.
Challenge organisms were initially acclimated to the paint without additives by adding 10% by volume of individual broth culture to the paint to yield final concentrations of 10^6-10^7 cfu/mL for each bacterial culture to produce paint stock cultures. The A. niger and C. albicans cultures (or suspension) were first poured through nonabsorbent sterile gauze to remove aggregates, then centrifuged. […]

For series [3], the system named is challenge organisms (SRB isolate, B. subtilis, A. niger, C. albicans, P. aeruginosa/C. albicans). As to the kind of experiment: Latex dispersion challenge test, summary over the challenge organisms. In kind it is cell-based. To be noted: acrylic latex dispersion, additive alone; challenge organisms other than SRB. How it is done:
A test of the antimicrobial efficacy of 1,4-CHDM was performed in a latex dispersion. Test procedures were generally conducted according to those of ASTM D2574-06: Standard Test Method for Resistance of Emulsion Latexes in the Container to Attack by Microorganisms.
An antimicrobial agent-free, acrylic latex dispersion with pH of 7.2, viscosity of 200 cps, and solids content of 49.8% was used as the substrate for microbial challenge testing.
Aliquots of the latex dispersion were distributed in sterile plastic tubes. The volume of latex added was adjusted such that the volume of additives plus the volume of latex would equal 25 mL to produce latex test samples.
The concentration of the additives was adjusted to allow for a final volume of 28 mL per tube after addition of the latex stock cultures discussed in Example 1. All tubes were mixed for 10 minutes on a mechanical shaker set to 75 shakes per minute, and then left stationary at ambient temperature for a minimum of 48 hours.
The bacteria (sulfate-reducing bacteria isolate, Bacillus subtilis, and Pseudomonas aeruginosa), yeast (Candida albicans), and fungi (Aspergillus niger) in Table 6 were used as challenge organisms for testing the antimicrobial efficacy of the test latex samples. Each organism was isolated from previous naturally contaminated samples of paint, latex, or adhesive.
as §1, with “Agar” for “Agar (SDA)”
Challenge organisms were initially acclimated to the latex without antimicrobial additives by adding 10% by volume of individual broth culture to latex to yield final concentrations of 10^6-10^7 cfu/mL for each bacterial culture to produce latex stock cultures. The A. niger and C. albicans cultures (or suspension) were first poured through nonabsorbent sterile gauze to remove aggregates then centrifuged. The solids were re-suspended to the desired concentration in latex by estimating the concentration using a hemocytometer. The P. aeruginosa and C. albicans isolates were originally found as a mixed culture in a contaminated product. A mixed latex stock culture containing P. aeruginosa and C. albicans was prepared by adding a portion of the contaminated product to the latex without antimicrobial additives. The latex stock culture samples were incubated at 35° C.±2° C. for bacteria and at 22° C.±2° C. for A. niger and C. albicans. To determine challenge organism concentration, samples of the latex stock cultures were dilution-plated, or for SRB, evaluated using the BACTI-BOTTLE method, as described below.
To the latex test samples, 3 mL of each latex stock culture (diluted as necessary) was added to produce a theoretical 1.0×10^5 to 1.0×10^6 cfu/mL total concentration to yield inoculated latex samples. […]

`OCC1(CO)CCCCC1` [1,1-CHDM, 1,1-cyclohexanedimethanol]: the solubility in series [1] is 2.25 % (w/v).
Turning to `OCC1CCC(CO)CC1` (stereo not shown) [1,4-CHDM, 1,4-cyclohexanedimethanol], the “killing of challenge organisms in paint” value in series [2] was “significant or complete killing of each challenge organism”. In series [3], the “efficacy against challenge organisms in latex” value (from here on “efficacy”) was “significant or complete killing of each challenge organism except SRB”.
Turning to `CC1(C)C(O)C(C)(C)C1O` (stereo not shown) [TMCD, 2,2,4,4-tetramethyl-1,3-cyclobutanediol], the “killing of challenge organisms in paint” value in series [2] was “killed all challenge organisms at the highest level tested”.
Consider `OCC1CCCC(CO)C1` (stereo not shown) [1,3-CHDM], for which, in series [2], the “killing of challenge organisms in paint” value is “little benefit and no observable dose response”.
Turning to `CCCCNC(=O)OCC#CI` [IPBC, 3-iodo-2-propanyl-n-butylcarbamate], the “efficacy” value in series [3] is given as “not found to be efficacious”.
In the case of `O=c1[nH]sc2ccccc12` [BIT, benzisothiazolinone], the “efficacy” value in series [3] was “highly efficacious”.
As for `CC(O)CO` (stereo not shown) [PG, propylene glycol], the “killing of challenge organisms in paint” value in series [2] is “little benefit and no observable dose response”. In series [3], the “efficacy” value is “some ability to inhibit and kill the challenge organisms”.
Turning to `Cn1sccc1=O` [MIT, methylisothiazolinone], in series [3], the “efficacy” value is “highly efficacious”.
